Patent publication US20250319032A1, “PHARMACEUTICAL COMPOSITIONS OF RIBOCICLIB” (Novartis AG, priority 2024, published 2025)

Test: Nitrite content (ion chromatography; LC-FLD with DAN derivatisation; Griess test) in drug substance, intermediates, reagents, solvents, filters, excipients
Type: physicochemical
Parameters: Nitrite content T0 (enhanced method): unit: ppm
Conditions: drug substance manufactured at Menges, T0
Excerpt: The method of testing for the presence and/or total amount of nitrites that is used in the methods of the invention may be any method which allows for the detection and/or quantitation of nitrites in a composition. For example, the method may be the Griess test. The Griess test allows for the detection and analysis of nitrite by the formation of a red-pink colour upon treatment of a nitrite-containing sample with the Griess reagent. The Griess reagent consists of two components in an acidic solution: an aniline derivative and a coupling agent. The most common arrangements use sulfanilamide and N-(1-naphthyl)ethylenediamine. For example 0.2% N-(1-naphthyl)ethylenediamine dihydrochloride and 2% sulfanilamide in 5% phosphoric acid may be used as a Griess reagent. Other aniline derivatives that may be used in a Griess reagent include sulfanilic acid, nitroaniline, and p-aminoacetophenone.
The Griess test involves two subsequent reactions, as shown in the scheme below. When the aniline derivative (e.g., sulfanilamide) is added, the nitrite ion reacts with it in the Griess diazotization reaction to form a diazonium salt, which then reacts with N-(1-naphthyl)ethylenediamine in an azo-coupling reaction, forming a pink-red azo-dye. Using a spectrophotometer, the nitrite concentration can then be quantitatively detected.
Additionally purified water; e.g. Milli Q • 2.
• 10 mM KH2PO4 Weigh accurately about 1.361 g of KH2PO4 into a 1 L volumetric flask, dissolve it in approximately 950 mL of additionally purified water and adjust the pH to 8.0 (with 2.7 M NaOH). Make up to the mark with additionally purified water. • 0.62 M HCl Add a few millilitres (e.g. 20 mL) of additionally purified water to a 200 mL volumetric flask, add 10.280 mL of concentrated HCl, mix and make up to the mark with additionally purified water. • 2.7 M NaOH Weigh accurately about 1.092 g of NaOH pellets into a 10 mL volumetric flask and dissolve it in additionally purified water. Cool to room temperature and make up to the mark with the same solvent. • Reagent DAN Weigh accurately about 5 mg of 2,3-diaminophthalene into a 100 mL volumetric flask and dissolve it with the solvent (methanol/water 1:1 (v/v)). Dilute up to the mark and ensure visual full dissolution. Use an amberglass flask. • Mobile phase A Mix 950 mL of 10 mM KH2PO4 solution (pH=8) and add 50 mL methanol. • Mobile phase B Methanol. • Solvent Methanol/water 1:1 (v/v), e.g. mix 2000 mL of additionally purified water and 2000 mL methanol.
• Instrument: HPLC with FLR detector; e.g. Waters Arc or equivalent • Column: C18 50×4.6 mm, 2.5 μm, e.g. XBridge C18 2.5 μm, 4.650 mm or equivalent
• Notes It is recommended to wear additional protective equipment (face mask and gloves) during weighing. • It is recommended to wash the column with 50% methanol after the analysis (example of preparation: mix 500 mL methanol and 500 m1 of additionally purified water). • It is recommended to rinse the injector with solvent after each injection. • All glassware and tools should be rinsed with additionally purified water before use. It is not recommended to leave the solutions open for a longer time before measurement. • Blank solution 1 Transfer 1 mL of solvent into a HPLC vial and perform derivatization as described below. • Blank solution 2 Transfer 10 mL of solvent into a single use glass vial and mix it on a magnetic stirrer for 30 min. Transfer the solution into a 5 mL centrifuge tube and centrifuge for 10 min at 12000 rpm. […] Fill up to the mark with solvent and mix. • (Cnitrite≈0.0005 mg/mL) • Comparison solution Transfer 10 mL of nitrite stock solution into a 500 mL volumetric flask. • (2 parallels) Fill up to the mark with solvent and mix. • Transfer 1 mL solution into a HPLC vial and perform the derivatization as described below. • (Cnitrite≈100 ppb) • Sample solution Accurately weigh about 1000 mg of the sample into a glass vial for single use and add 10 mL of solvent.

| Nitrite content T0 (enhanced method) | Compound |
| --- | --- |
| 0.1 | CN(C)C(=O)c1cc2cnc(Nc3ccc(N4CCNCC4)cn3)nc2n1C1CCCC1.O=C(O)CCC(=O)O [Batch B692472] |
| 0.5 | CN(C)C(=O)c1cc2cnc(Nc3ccc(N4CCNCC4)cn3)nc2n1C1CCCC1.O=C(O)CCC(=O)O [Batch B695104] |
| 0.1 | CN(C)C(=O)c1cc2cnc(Nc3ccc(N4CCNCC4)cn3)nc2n1C1CCCC1.O=C(O)CCC(=O)O [Batch B695106] |
| <0.1 | CN(C)C(=O)c1cc2cnc(Nc3ccc(N4CCNCC4)cn3)nc2n1C1CCCC1.O=C(O)CCC(=O)O [Batch B696587] |
| <0.1 | CN(C)C(=O)c1cc2cnc(Nc3ccc(N4CCNCC4)cn3)nc2n1C1CCCC1.O=C(O)CCC(=O)O [Batch B711867] |

Same assay, conditions: ribociclib base (LEE011 B10), ion chromatography

| Nitrite [ppm] LOD (1 ppm) | Compound |
| --- | --- |
| <LOD | CN(C)C(=O)c1cc2cnc(Nc3ccc(N4CCNCC4)cn3)nc2n1C1CCCC1 [Batch B685591] |
| <LOD | CN(C)C(=O)c1cc2cnc(Nc3ccc(N4CCNCC4)cn3)nc2n1C1CCCC1 [Batch B687416] |

Same assay, conditions: ribociclib succinate drug substance batches at release

| Nitrite NAP method (ppm) | Nitrite NAT enhanced sample prep. (ppm) | Compound |
| --- | --- | --- |
| 0.2 ppm | 0.1 ppm | CN(C)C(=O)c1cc2cnc(Nc3ccc(N4CCNCC4)cn3)nc2n1C1CCCC1.O=C(O)CCC(=O)O [Batch B692472] |
| 0.3 ppm | 0.5 ppm | CN(C)C(=O)c1cc2cnc(Nc3ccc(N4CCNCC4)cn3)nc2n1C1CCCC1.O=C(O)CCC(=O)O [Batch B695104] |
| 0.3 ppm | 0.3 ppm | CN(C)C(=O)c1cc2cnc(Nc3ccc(N4CCNCC4)cn3)nc2n1C1CCCC1.O=C(O)CCC(=O)O [Batch B695105] |
| 0.2 ppm | 0.1 ppm | CN(C)C(=O)c1cc2cnc(Nc3ccc(N4CCNCC4)cn3)nc2n1C1CCCC1.O=C(O)CCC(=O)O [Batch B695106] |
| 0.2 ppm | <0.1 ppm | CN(C)C(=O)c1cc2cnc(Nc3ccc(N4CCNCC4)cn3)nc2n1C1CCCC1.O=C(O)CCC(=O)O [Batch B696587] |
| 0.2 ppm | 0.1 ppm | CN(C)C(=O)c1cc2cnc(Nc3ccc(N4CCNCC4)cn3)nc2n1C1CCCC1.O=C(O)CCC(=O)O [Batch B696588] |
| 0.2 ppm | <0.1 ppm | CN(C)C(=O)c1cc2cnc(Nc3ccc(N4CCNCC4)cn3)nc2n1C1CCCC1.O=C(O)CCC(=O)O [Batch B696589] |
| 0.3 ppm | 0.4 ppm | CN(C)C(=O)c1cc2cnc(Nc3ccc(N4CCNCC4)cn3)nc2n1C1CCCC1.O=C(O)CCC(=O)O [Batch B696590] |
| 0.3 ppm | 0.4 ppm | CN(C)C(=O)c1cc2cnc(Nc3ccc(N4CCNCC4)cn3)nc2n1C1CCCC1.O=C(O)CCC(=O)O [Batch B698293] |
| 0.2 ppm | 0.2 ppm | CN(C)C(=O)c1cc2cnc(Nc3ccc(N4CCNCC4)cn3)nc2n1C1CCCC1.O=C(O)CCC(=O)O [Batch B698294] |
| 0.3 ppm | 0.4 ppm | CN(C)C(=O)c1cc2cnc(Nc3ccc(N4CCNCC4)cn3)nc2n1C1CCCC1.O=C(O)CCC(=O)O [Batch B698295] |
| 0.4 ppm | 0.3 ppm | CN(C)C(=O)c1cc2cnc(Nc3ccc(N4CCNCC4)cn3)nc2n1C1CCCC1.O=C(O)CCC(=O)O [Batch B698296] |
| 0.2 ppm | 0.1 ppm | CN(C)C(=O)c1cc2cnc(Nc3ccc(N4CCNCC4)cn3)nc2n1C1CCCC1.O=C(O)CCC(=O)O [Batch B698297] |
| 0.2 ppm | <0.1 ppm | CN(C)C(=O)c1cc2cnc(Nc3ccc(N4CCNCC4)cn3)nc2n1C1CCCC1.O=C(O)CCC(=O)O [Batch B698298] |
| 0.1 ppm | <0.1 ppm | CN(C)C(=O)c1cc2cnc(Nc3ccc(N4CCNCC4)cn3)nc2n1C1CCCC1.O=C(O)CCC(=O)O [Batch B699003] |
| 0.2 ppm | 0.1 ppm | CN(C)C(=O)c1cc2cnc(Nc3ccc(N4CCNCC4)cn3)nc2n1C1CCCC1.O=C(O)CCC(=O)O [Batch B707657] |
| 0.2 ppm | <0.1 ppm | CN(C)C(=O)c1cc2cnc(Nc3ccc(N4CCNCC4)cn3)nc2n1C1CCCC1.O=C(O)CCC(=O)O [Batch B708687] |

| Nitrite NAP method (ppm) | Nitrite NAT enhanced sample prep. (ppm) | Compound |
| --- | --- | --- |
| 0.2 ppm | <0.1 ppm | CN(C)C(=O)c1cc2cnc(Nc3ccc(N4CCNCC4)cn3)nc2n1C1CCCC1.O=C(O)CCC(=O)O [Batch B708688] |
| 0.2 ppm | <0.1 ppm | CN(C)C(=O)c1cc2cnc(Nc3ccc(N4CCNCC4)cn3)nc2n1C1CCCC1.O=C(O)CCC(=O)O [Batch B709049] |
| 0.2 ppm | 0.1 ppm | CN(C)C(=O)c1cc2cnc(Nc3ccc(N4CCNCC4)cn3)nc2n1C1CCCC1.O=C(O)CCC(=O)O [Batch B709050] |
| 0.2 ppm | <0.1 ppm | CN(C)C(=O)c1cc2cnc(Nc3ccc(N4CCNCC4)cn3)nc2n1C1CCCC1.O=C(O)CCC(=O)O [Batch B709051] |
| 0.2 ppm | <0.1 ppm | CN(C)C(=O)c1cc2cnc(Nc3ccc(N4CCNCC4)cn3)nc2n1C1CCCC1.O=C(O)CCC(=O)O [Batch B709938] |
| 0.2 ppm | <0.1 ppm | CN(C)C(=O)c1cc2cnc(Nc3ccc(N4CCNCC4)cn3)nc2n1C1CCCC1.O=C(O)CCC(=O)O [Batch B709939] |
| 0.2 ppm | <0.1 ppm | CN(C)C(=O)c1cc2cnc(Nc3ccc(N4CCNCC4)cn3)nc2n1C1CCCC1.O=C(O)CCC(=O)O [Batch B709940] |
| 0.1 ppm | 0.1 ppm | CN(C)C(=O)c1cc2cnc(Nc3ccc(N4CCNCC4)cn3)nc2n1C1CCCC1.O=C(O)CCC(=O)O [Batch B709941] |
| 0.2 ppm | 1.6 ppm | CN(C)C(=O)c1cc2cnc(Nc3ccc(N4CCNCC4)cn3)nc2n1C1CCCC1.O=C(O)CCC(=O)O [Batch B710665] |
| 0.5 ppm | <0.1 ppm | CN(C)C(=O)c1cc2cnc(Nc3ccc(N4CCNCC4)cn3)nc2n1C1CCCC1.O=C(O)CCC(=O)O [Batch B710666] |
| 0.2 ppm | 0.1 ppm | CN(C)C(=O)c1cc2cnc(Nc3ccc(N4CCNCC4)cn3)nc2n1C1CCCC1.O=C(O)CCC(=O)O [Batch B710668] |
| 0.1 ppm | <0.1 ppm | CN(C)C(=O)c1cc2cnc(Nc3ccc(N4CCNCC4)cn3)nc2n1C1CCCC1.O=C(O)CCC(=O)O [Batch B710669] |
| 0.1 ppm | <0.1 ppm | CN(C)C(=O)c1cc2cnc(Nc3ccc(N4CCNCC4)cn3)nc2n1C1CCCC1.O=C(O)CCC(=O)O [Batch B711439] |
| 0.1 ppm | 0.9 ppm | CN(C)C(=O)c1cc2cnc(Nc3ccc(N4CCNCC4)cn3)nc2n1C1CCCC1.O=C(O)CCC(=O)O [Batch B711440] |
| 0.2 ppm | <0.1 ppm | CN(C)C(=O)c1cc2cnc(Nc3ccc(N4CCNCC4)cn3)nc2n1C1CCCC1.O=C(O)CCC(=O)O [Batch B711866] |
| 0.1 ppm | 0.1 ppm | CN(C)C(=O)c1cc2cnc(Nc3ccc(N4CCNCC4)cn3)nc2n1C1CCCC1.O=C(O)CCC(=O)O [Batch B711867] |
| – | <0.1 ppm | CN(C)C(=O)c1cc2cnc(Nc3ccc(N4CCNCC4)cn3)nc2n1C1CCCC1.O=C(O)CCC(=O)O [Batch B711868] |
